Data taken from PubChem BioAssay AID1963967 (Molecular Pharmacology Branch, DTP, NCI, 2024).

System: 855422-203-R-J1-PDC spheroids with HUVEC/MSC, viability
Experiment: Anticancer human tumor 855422-203-R-J1-PDC patient-derived bladder carcinoma cell line growth inhibition [PI3K]
Details: for IC50: curve of first compound; for viability, T/C: stronger effect = lower value
Excerpt: Combinatorial screen of targeted agents with the PI3K inhibitors inavolisib, alpelisib, duvelisib, and copanlisib in multi-cell type tumor spheroids
A high-throughput screen of multi-cell type tumor spheroids was designed to identify active combinations of targeted small molecules and PI3K pathway inhibitors. Complex spheroids include a stromal component modeled by human endothelial cells (HUVEC) and fibroblasts modeled by human mesenchymal stem cells (MSCs). The concentration ranges selected for each drug and investigational agent were based upon clinically achievable concentrations if the clinical Cmax of the agent was known.
Compounds. The drugs and investigational agents: inavolisib (NSC800729), alpelisib (NSC765974), duvelisib (NSC772469), copanlisib (NSC816437), ipatasertib (NSC767898), afuresertib (NSC778305), talazoparib (NSC767125), sapanisertib (NSC764658), selumetinib (NSC741078), tovorafenib (DAY101, NSC766906), vemurafenib (NSC761431), ravoxertinib (NSC781343), sotorasib (NSC818433), MRTX1133 (NSC 836407), abemaciclib (NSC 768073), palbociclib (NSC758247), venetoclax (NSC 766270), SY5609 (NSC837396), enzalutamide (NSC755605), and darolutamide (NSC825331), were obtained from the National Cancer Institute (NCI) Developmental Therapeutics Program Chemical Repository. The FDA-approved anticancer drug set is available from the NCI Developmental Therapeutics Program. […] The stock solutions were prepared in dimethyl sulfoxide (DMSO, Sigma-Aldrich, St. Louis, MO, cat. D2650) at 800-fold the tested concentration and stored at -70 degrees C prior to their use. All drugs and investigational agents were tested over a range starting from a high concentration at or near the clinical Cmax and decreasing in half-log increments. If the clinical Cmax for an agent had not been determined, the highest concentration tested was 10 microM.
Cell Culture. All cells were maintained in an incubator at 37 degrees C and 5% CO2 with 95% humidity. The PDC lines were cultured according to standard operating procedures established by the NCI PDMR (https://pdmr.cancer.gov/sops/default.htm). All PDCs were thawed and cultured in Matrigel-coated flasks prepared with a working solution of 1X Ham's F-12 nutrient mix, without supplementation (Invitrogen, Waltham, MA, cat. 11765054), 100 U/mL penicillin-streptomycin (Invitrogen, cat. 15140122), and 2.5% Matrigel (Corning Inc., Corning, NY, cat. 354248) for the first three passages. The 354836-022-R-J1-PDC, 475296-252-R-J1-PDC, and 997726-040-R-J2-PDC lines were cultured in 6A media, which includes advanced DMEM/F-12 (Thermo Fisher Scientific, cat. 12634028), 10 mM HEPES (Thermo Fisher Scientific, cat. 15630080), 1X GlutaMAX supplement (Thermo Fisher Scientific, cat. 35050061), 0.1 mg/mL primocin (InvivoGen, San Diego, CA, cat. ant-pm-2), 10% defined fetal bovine serum, heat inactivated (HyClone Laboratories Inc., Logan, UT, cat. SH30070.03HI), 50% L-WRN conditioned media (ATCC, cat. CRL-3276), 1.25 mM N-Acetyl-L-cysteine (Sigma-Aldrich, cat. A9165), 10 mM nicotinamide (Sigma-Aldrich, cat. N0636), 1X B-27 supplement (Thermo Fisher Scientific, cat. 17504044), 1X N-2 supplement (Thermo Fisher Scientific, cat. 17502048), and 10 microM Y-27632 dihydrochloride (Tocris Bioscience, Bristol, United Kingdom, cat. 1254). The 624824-186-R-J2-PDC line was cultured in 6C/Colon 1B media, which includes all 6A media components plus 50 ng/mL human EGF recombinant protein (Thermo Fisher Scientific, cat. PHG0311). […]

[1] = second compound 0.0316 µM, first compound 0.0316 µM
[2] = second compound 0.0316 µM, first compound 0.1 µM
[3] = second compound 0.0316 µM, first compound 0.316 µM
[4] = second compound 0.0316 µM, first compound 1 µM
[5] = second compound 0.0316 µM, first compound 3.16 µM
[6] = second compound 0.0316 µM, first compound 10 µM
[7] = second compound 0.1 µM, first compound 0.0316 µM
[8] = second compound 0.1 µM, first compound 0.1 µM
[9] = second compound 0.1 µM, first compound 0.316 µM
[10] = second compound 0.1 µM, first compound 1 µM
[11] = second compound 0.1 µM, first compound 3.16 µM
[12] = second compound 0.1 µM, first compound 10 µM
[13] = second compound 0.316 µM, first compound 0.0316 µM
[14] = second compound 0.316 µM, first compound 0.1 µM
[15] = second compound 0.316 µM, first compound 0.316 µM
[16] = second compound 0.316 µM, first compound 1 µM
[17] = second compound 0.316 µM, first compound 3.16 µM
[18] = second compound 0.316 µM, first compound 10 µM
[19] = second compound 1 µM, first compound 0.0316 µM
[20] = second compound 1 µM, first compound 0.1 µM
[21] = second compound 1 µM, first compound 0.316 µM
[22] = second compound 1 µM, first compound 1 µM
[23] = second compound 1 µM, first compound 3.16 µM
[24] = second compound 1 µM, first compound 10 µM
[25] = second compound 0.00316 µM, first compound 0.0316 µM
[26] = second compound 0.00316 µM, first compound 0.1 µM
[27] = second compound 0.00316 µM, first compound 0.316 µM
[28] = second compound 0.00316 µM, first compound 1 µM
[29] = second compound 0.00316 µM, first compound 3.16 µM
[30] = second compound 0.00316 µM, first compound 10 µM
[31] = second compound 0.01 µM, first compound 0.0316 µM
[32] = second compound 0.01 µM, first compound 0.1 µM
[33] = second compound 0.01 µM, first compound 0.316 µM
[34] = second compound 0.01 µM, first compound 1 µM
[35] = second compound 0.01 µM, first compound 3.16 µM
[36] = second compound 0.01 µM, first compound 10 µM
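Also: agents incubated with spheroids for one week before read-out.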
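For viability, T/C in this document: 100% = DMSO vehicle-treated control wells.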

## CC1(C)CCC(Nc2ncc(C(F)(F)F)c(-c3c[nH]c4c(P(C)(C)=O)c(C#N)ccc34)n2)CN1 (stereo unspecified) + Cc1nc(NC(=O)N2CCCC2C(N)=O)sc1-c1ccnc(C(C)(C)C(F)(F)F)c1
Second compound 0.0316 µM
  IC50: < 31.6 nM
Second compound 0.1 µM
  IC50: < 31.6 nM
Second compound 0.316 µM
  IC50: < 31.6 nM
Second compound 1 µM
  IC50: < 31.6 nM
Second compound 3.16 µM
  IC50: < 31.6 nM
Second compound 10 µM
  IC50: < 31.6 nM
[1]
  viability, T/C: 27%
[2]
  viability, T/C: 25.1%
[3]
  viability, T/C: 25.5%
[4]
  viability, T/C: 29.4%
[5]
  viability, T/C: 26.9%
[6]
  viability, T/C: 7.04%
[7]
  viability, T/C: 26%
[8]
  viability, T/C: 23.9%
[9]
  viability, T/C: 25%
[10]
  viability, T/C: 26.7%
[11]
  viability, T/C: 28%
[12]
  viability, T/C: 7.41%
[13]
  viability, T/C: 22.5%
[14]
  viability, T/C: 23%
[15]
  viability, T/C: 25%
[16]
  viability, T/C: 22%
[17]
  viability, T/C: 18.5%
[18]
  viability, T/C: 5.22%
[19]
  viability, T/C: 20.2%
[20]
  viability, T/C: 20.2%
[21]
  viability, T/C: 18.7%
[22]
  viability, T/C: 19.6%
[23]
  viability, T/C: 17.5%
[24]
  viability, T/C: 2.99%
Second compound 3.16 µM, first compound 0.0316 µM
  viability, T/C: 16.3%
Second compound 3.16 µM, first compound 0.1 µM
  viability, T/C: 15.4%
Second compound 3.16 µM, first compound 0.316 µM
  viability, T/C: 13.3%
Second compound 3.16 µM, first compound 1 µM
  viability, T/C: 12.9%
Second compound 3.16 µM, first compound 3.16 µM
  viability, T/C: 10.8%
Second compound 3.16 µM, first compound 10 µM
  viability, T/C: 0.7%
Second compound 10 µM, first compound 0.0316 µM
  viability, T/C: 11.8%
Second compound 10 µM, first compound 0.1 µM
  viability, T/C: 10.2%
Second compound 10 µM, first compound 0.316 µM
  viability, T/C: 8.26%
Second compound 10 µM, first compound 1 µM
  viability, T/C: 8.63%
Second compound 10 µM, first compound 3.16 µM
  viability, T/C: 6.11%
Second compound 10 µM, first compound 10 µM
  viability, T/C: 0.26%

## C#Cc1c(F)ccc2cc(O)cc(-c3ncc4c(N5CC6CCC(C5)N6)nc(OCC56CCCN5CC(F)C6)nc4c3F)c12 (stereo unspecified) + COc1c(OCCCN2CCOCC2)ccc2c3n(c(=NC(=O)c4cnc(N)nc4)nc12)CCN3
Second compound 0.00316 µM
  IC50: > 10000 nM
Second compound 0.01 µM
  IC50: > 10000 nM
Second compound 0.0316 µM
  IC50: > 10000 nM
Second compound 0.1 µM
  IC50: < 31.6 nM
Second compound 0.316 µM
  IC50: < 31.6 nM
Second compound 1 µM
  IC50: < 31.6 nM
[25]
  viability, T/C: 103%
[26]
  viability, T/C: 86.9%
[27]
  viability, T/C: 105%
[28]
  viability, T/C: 101%
[29]
  viability, T/C: 103%
[30]
  viability, T/C: 107%
[31]
  viability, T/C: 97.7%
[32]
  viability, T/C: 90.9%
[33]
  viability, T/C: 83.3%
[34]
  viability, T/C: 91%
[35]
  viability, T/C: 92.8%
[36]
  viability, T/C: 105%
[1]
  viability, T/C: 57.6%
[2]
  viability, T/C: 65.4%
[3]
  viability, T/C: 62.7%
[4]
  viability, T/C: 60%
[5]
  viability, T/C: 59.5%
[6]
  viability, T/C: 50.4%
[7]
  viability, T/C: 25.9%
[8]
  viability, T/C: 26.7%
[9]
  viability, T/C: 26.5%
[10]
  viability, T/C: 24.8%
[11]
  viability, T/C: 23.8%
[12]
  viability, T/C: 20.4%
[13]
  viability, T/C: 10.8%
[14]
  viability, T/C: 8.21%
[15]
  viability, T/C: 9.76%
[16]
  viability, T/C: 7.21%
[17]
  viability, T/C: 6.7%
[18]
  viability, T/C: 3.41%
[19]
  viability, T/C: 3.53%
[20]
  viability, T/C: 3.24%
[21]
  viability, T/C: 3.78%
[22]
  viability, T/C: 2.64%
[23]
  viability, T/C: 2.16%
[24]
  viability, T/C: 0.32%

## CC1(C)CCC(Nc2ncc(C(F)(F)F)c(-c3c[nH]c4c(P(C)(C)=O)c(C#N)ccc34)n2)CN1 (stereo unspecified) + CC(Nc1ccc2c(c1)OCCn1cc(N3C(=O)OCC3C(F)F)nc1-2)C(N)=O
Second compound 0.00316 µM
  IC50: < 31.6 nM
Second compound 0.01 µM
  IC50: < 31.6 nM
Second compound 0.0316 µM
  IC50: < 31.6 nM
Second compound 0.1 µM
  IC50: < 31.6 nM
Second compound 0.316 µM
  IC50: < 31.6 nM
Second compound 1 µM
  IC50: < 31.6 nM
[25]
  viability, T/C: 23.7%
[26]
  viability, T/C: 25%
[27]
  viability, T/C: 27.9%
[28]
  viability, T/C: 31.6%
[29]
  viability, T/C: 31.4%
[30]
  viability, T/C: 3.85%
[31]
  viability, T/C: 20.4%
[32]
  viability, T/C: 21.3%
[33]
  viability, T/C: 26.2%
[34]
  viability, T/C: 25.8%
[35]
  viability, T/C: 29.1%
[36]
  viability, T/C: 3.78%
[1]
  viability, T/C: 20.2%
[2]
  viability, T/C: 22.9%
[3]
  viability, T/C: 22.2%
[4]
  viability, T/C: 24.6%
[5]
  viability, T/C: 24.1%
[6]
  viability, T/C: 2.13%
[7]
  viability, T/C: 20.2%
[8]
  viability, T/C: 19.4%
[9]
  viability, T/C: 20%
[10]
  viability, T/C: 23.2%
[11]
  viability, T/C: 21.5%
[12]
  viability, T/C: 3.77%
[13]
  viability, T/C: 15.3%
[14]
  viability, T/C: 17.9%
[15]
  viability, T/C: 15.7%
[16]
  viability, T/C: 15.5%
[17]
  viability, T/C: 13.7%
[18]
  viability, T/C: 1.23%
[19]
  viability, T/C: 14.4%
[20]
  viability, T/C: 14.2%
[21]
  viability, T/C: 13.1%
[22]
  viability, T/C: 12.6%
[23]
  viability, T/C: 11.4%
[24]
  viability, T/C: 0.83%
